Results as given in patent US11369602B2, “Use of tadalafil as protein arginine methyltransferase (PRMT5) inhibitor” (Fourth Mil. Med. Univ. of People's Lib. Army, priority 2019, dated 2022).

Assays:
MDA-MB-231 tumor = experiment: MDA-MB-231 xenograft tumor growth in immunodeficient mice; format: in vivo; details: Tadalafil oral gavage 2 mg/kg once a day; Doxorubicin tail vein 2 mg/kg once a week; 25 days (FIG. 6)
Protocol: Immunodeficient mice were seeded with MDA-MB-231 cells respectively. When tumor volumes reached 50-100 mm3, mice were given treatment selected from the following: PBS (Control, Ctrl), Tadalafil, Doxorubicin (DOX), Tadalafil in combination with Doxorubicin (DOX+Tadalafil). Tadalafil was administered by oral gavage (2 mg/kg, once a day) while Doxorubicin was administered by mouse tail vein injection (2 mg/kg, once a week). Body weights of mice and tumor volumes were measured every day for 25 days.

[1] = target: T1, PRMT5 (PRMT5/MEP50 purified protein) (Homo sapiens, UniProt O14744); experiment: SPR affinity analysis (Biacore T200); format: binding
T1 construct: purchased abcam ab198151
Protocol: Analysis of affinity of Tadalafil for target protein (PRMT5) was carried out using Biacore T200 analysis platform and SPR technology. Tadalafil was obtained from MCE corporation with catalog no: HY-9 0009A (50 mg). PRMT5/MEP50 purified protein was obtained from abcam corporation with catalog no: ab198151 (20 μg). Tadalafil was diluted to a series of concentrations in sequence of: 0.78, 1.56, 3.125, 6.25, 12.5, 25, 50 and 100 (μM).

tumor = experiment: Later functional experiment (tumor inhibitory effect)

T1 sequence (O14744 whole entry): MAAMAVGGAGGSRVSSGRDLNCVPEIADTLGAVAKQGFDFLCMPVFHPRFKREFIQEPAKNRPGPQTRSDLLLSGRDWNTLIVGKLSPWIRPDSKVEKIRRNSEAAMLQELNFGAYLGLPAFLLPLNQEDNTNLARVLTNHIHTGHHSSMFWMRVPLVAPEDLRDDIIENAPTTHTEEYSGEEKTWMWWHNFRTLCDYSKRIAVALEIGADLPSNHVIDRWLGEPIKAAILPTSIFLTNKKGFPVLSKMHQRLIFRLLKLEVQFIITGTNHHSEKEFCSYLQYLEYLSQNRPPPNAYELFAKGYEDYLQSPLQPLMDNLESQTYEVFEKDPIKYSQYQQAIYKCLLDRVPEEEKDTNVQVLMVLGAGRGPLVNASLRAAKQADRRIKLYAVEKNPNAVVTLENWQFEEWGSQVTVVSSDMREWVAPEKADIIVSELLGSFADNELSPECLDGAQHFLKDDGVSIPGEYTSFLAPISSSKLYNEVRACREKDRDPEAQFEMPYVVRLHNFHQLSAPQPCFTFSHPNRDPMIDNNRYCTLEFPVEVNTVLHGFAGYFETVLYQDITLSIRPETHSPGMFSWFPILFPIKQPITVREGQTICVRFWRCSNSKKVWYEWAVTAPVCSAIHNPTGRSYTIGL
T1 sequence (Q9BQA1 whole entry partner): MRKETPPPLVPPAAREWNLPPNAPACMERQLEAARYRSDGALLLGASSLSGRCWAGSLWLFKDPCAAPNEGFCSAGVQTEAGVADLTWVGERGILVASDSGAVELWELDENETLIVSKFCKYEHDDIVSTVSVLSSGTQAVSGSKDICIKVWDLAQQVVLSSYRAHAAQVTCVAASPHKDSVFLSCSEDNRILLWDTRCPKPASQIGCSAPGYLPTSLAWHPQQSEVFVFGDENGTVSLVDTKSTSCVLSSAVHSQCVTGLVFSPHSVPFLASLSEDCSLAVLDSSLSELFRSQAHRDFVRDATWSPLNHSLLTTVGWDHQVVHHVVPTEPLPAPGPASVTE

## COc1cccc2c1C(=O)c1c(O)c3c(c(O)c1C2=O)C[C@@](O)(C(=O)CO)C[C@@H]3O[C@H]1C[C@H](N)[C@H](O)[C@H](C)O1 [Doxorubicin]
MDA-MB-231 tumor
  mouse tumor volume / tumor growth: inhibited tumor growth

## O=C(O)c1cc(/N=N/c2ccc(S(=O)(=O)Nc3ccccn3)cc2)ccc1O [Sulfasalazine]
[1]; SPR experiment
  binding ability to PRMT5: lower binding ability to PRMT5
tumor
  tumor inhibitory effect: relatively weak tumor inhibitory effect

## CN1CC(=O)N2[C@H](c3ccc4c(c3)OCO4)c3[nH]c4ccccc4c3C[C@@H]2C1=O [Tadalafil]
[1]; SPR, Biacore T200, Tadalafil 0.78-100 μM
  Kd: 22.7 ± 9.6 µM
